Experiments:
[1] = tested on: human melanoma cell line A375 cells; assay: Antitumor effect in transplantation model nude mouse with human melanoma cell line A375 cells (Example 5); type: in vivo; settings: p.o. once a day, 14 days
Protocol: (§1) The tumor volume was calculated according to the following formula.

[2] = tested on: human non-small cell lung cancer cell line NCI-H358 cells; assay: Antitumor effect in transplantation model nude mouse with human non-small cell lung cancer cell line NCI-H358 cells (Example 4); type: in vivo; settings: p.o. once a day, 14 days
Protocol: as §1

[3] = tested on: human colorectal cancer cell line Colo205 cells; assay: Antitumor effect in transplantation model nude mouse with human colorectal cancer cell line Colo205 cells (Example 3); type: in vivo; settings: p.o. once a day, 14 days
Protocol: as §1

[4] = tested on: human colorectal cancer cell line SW1463 cells; assay: Antitumor effect in transplantation model nude mouse with human colorectal cancer cell line SW1463 cells (Example 2); type: in vivo; settings: formula (I) 25.0 mg/kg + Trametinib 0.3 mg/kg + Adagrasib 10 mg/kg, p.o. once a day, 14 days
Protocol: as §1

[5] = tested on: human colorectal cancer cell line Colo205 cells; assay: Antitumor effect in transplantation model nude mouse with human colorectal cancer cell line Colo205 cells (Example 1); type: in vivo; settings: 14 days; for enhancement in antitumor effect (tumor volume) by combined use with Trametinib: combined with Trametinib 0.3 mg/kg p.o., formula (I) 12.5 or 25 mg/kg p.o., ICG001 100 mg/kg i.p., FIGS. 1-3
Protocol: Human colorectal cancer-derived cell line Colo205 cells (supplied by ATCC) were suspended in Hanks' Balanced Salt Solution (HBSS) (manufactured by FUJIFILM Wako Chemicals) at 5× 10^7 cells/mL. 0.1 mL of the obtained cell suspension was transplanted subcutaneously to a right frank of 6-week nude mice (CAnN.Cg-Foxn1 nu/CrlCrlj, manufactured by Charles River Laboratories Japan, Inc.). Ten days after the transplantation, a major axis and a minor axis of a tumor generated in each mouse were measured with a digimatic caliper (manufactured by Mitutoyo Corp.), and the mice were divided into groups each including six mice such that an average tumor volume was approximately equal. The tumor volume was calculated according to the following formula.
From ten days after the transplantation, the compound represented by formula (I) (12.5 mg/kg or 25 mg/kg, once a day, 14 days, orally administered), Trametinib (0.3 mg/kg, once a day, 14 days, orally administered), and ICG001 (100 mg/kg, once a day, 14 days, intraperitoneally administered) were administered singly or in combination to the mice in a single administration group or a combined administration group. Note that any one of the above agents was not administered to a control group.
Note that, at the time of administration, the compound represented by formula (I) was dissolved in 0.1 M hydrochloric acid at 1.25 mg/mL or 2.50 mg/mL, Trametinib (manufactured by Amadis Chemical) was dissolved in distilled water (pH 8.0) (manufactured by Otsuka Pharmaceutical Co., Ltd.) containing 0.5 w/v % of hydroxypropyl methyl cellulose (manufactured by FUJIFILM Wako Chemicals) and 0.2 w/v % of Tween80 (manufactured by Sigma) at 0.03 mg/mL, and ICG001 (manufactured by WuXi App Tec) was dissolved in physiological saline (manufactured by Otsuka Pharmaceutical Co., Ltd.) containing 3.5 w/v % of dimethylsulfoxide (manufactured by Wako Pure Chemical Industries, Ltd.) and 6.5 w/v % of Tween80 at 10 mg/mL.
The administration start day was defined as the first day, and a major axis and a minor axis of a tumor generated in each mouse were measured on the fifth day, the eighth day, the twelfth day, and the fifteenth day, and a tumor volume was calculated by a similar method to the above-described method. FIG. 1 illustrates a transition of the tumor volume in a case where 12.5 mg/kg of the compound represented by formula (I) and 0.3 mg/kg of Trametinib were administered singly or in combination. FIG. 2 illustrates a transition of the tumor volume in a case where 25.0 mg/kg of the compound represented by formula (I) and 0.3 mg/kg of Trametinib were administered singly or in combination. FIG. 3 illustrates a transition of the tumor volume in a case where 100 mg/kg of ICG001 and 0.3 mg/kg of Trametinib were administered singly or in combination. […]

[6] = tested on: human colorectal cancer cell line HT-29 (BRAF V600E-mutant); settings: HT-29 subcutaneous mouse model, cited from earlier work
[7] = tested on: patient-derived colorectal cancer organoid; settings: PDX model mouse, ICG001 + Trametinib; cited from earlier work
[8] = formula (I) 25 mg/kg + Trametinib 0.3 mg/kg, FIG. 13
[9] = formula (I) 25.0 mg/kg + Trametinib 0.3 mg/kg + Adagrasib 3 mg/kg, FIG. 12
[10] = formula (I) 25 mg/kg + Trametinib 0.3 mg/kg, FIG. 10
[11] = formula (I) 25 mg/kg + Trametinib 0.3 mg/kg, FIG. 7

## C=CCN1CC(=O)N2[C@@H](Cc3ccc(O)cc3F)C(=O)N(Cc3cccc(N4CC(N5CCN(CC)CC5)C4)n3)C[C@@H]2N1C(=O)NCc1ccccc1 [compound represented by formula (I), (6S,9aS)—N-benzyl-8-({6-[3-(4-ethylpiperazin-1-yl)azetidin-1-yl]pyridin-2-yl}methyl)-6-(2-fluoro-4-hydroxybenzyl)-4,7-dioxo-2-(prop-2-en-1-yl)hexahydro-2H-pyrazino[2,1-c][1,2,4]triazine-1(6H)-carboxamide]
[1]; formula (I) 25.0 mg/kg + Trametinib 0.3 mg/kg + Dabrafenib 30 mg/kg, FIG. 14
  tumor proliferation, three-agent combination with Trametinib and Dabrafenib compared with formula (I) singly or Trametinib + Dabrafenib: inhibited tumor proliferation in a statistically significant manner
[1]; formula (I) 25.0 mg/kg + Trametinib 0.3 mg/kg + Dabrafenib 30 mg/kg, FIG. 15
  tumor proliferation, three-agent combination with Trametinib and Dabrafenib compared with Dabrafenib singly or formula (I) + Trametinib: inhibited tumor proliferation in a statistically significant manner
[1]; [8]
  enhancement in antitumor effect (tumor volume) by combined use with Trametinib: remarkable enhancement in antitumor effect
  tumor proliferation, combined use with Trametinib compared with formula (I) or Trametinib administered singly: inhibited tumor proliferation in a statistically significant manner
[2]; formula (I) 25.0 mg/kg + Trametinib 0.3 mg/kg + Adagrasib 3 mg/kg, FIG. 11
  tumor proliferation, three-agent combination with Trametinib and Adagrasib compared with formula (I) singly or Trametinib + Adagrasib: inhibited tumor proliferation in a statistically significant manner
[2]; [9]
  antitumor effect, three-agent combination with Trametinib and Adagrasib compared with two-agent formula (I) + Trametinib: enhancement tendency
  tumor proliferation, three-agent combination with Trametinib and Adagrasib compared with Adagrasib singly: inhibited tumor proliferation in a statistically significant manner
[2]; [10]
  antitumor effect, combined use with Trametinib compared with formula (I) or Trametinib administered singly: tendency to enhance the antitumor effect
  enhancement in antitumor effect (tumor volume) by combined use with Trametinib: remarkable enhancement in antitumor effect
[3]; formula (I) 25.0 mg/kg + Trametinib 0.3 mg/kg + Dabrafenib 30 mg/kg, FIG. 8
  tumor proliferation, three-agent combination with Trametinib and Dabrafenib compared with two-agent Trametinib + Dabrafenib: inhibited tumor proliferation in a statistically significant manner
[3]; formula (I) 25.0 mg/kg + Trametinib 0.3 mg/kg + Dabrafenib 30 mg/kg, FIG. 9
  tumor proliferation, three-agent combination with Trametinib and Dabrafenib compared with two-agent formula (I) + Trametinib: inhibited tumor proliferation in a statistically significant manner
[3]; [11]
  enhancement in antitumor effect (tumor volume) by combined use with Trametinib: remarkable enhancement in antitumor effect
  tumor proliferation, combined use with Trametinib compared with formula (I) or Trametinib administered singly: inhibited tumor proliferation in a statistically significant manner
[4]; FIG. 5
  tumor proliferation, three-agent combination with Trametinib and Adagrasib compared with formula (I) singly or Trametinib + Adagrasib: inhibited tumor proliferation in a statistically significant manner
[4]; FIG. 6
  tumor proliferation, three-agent combination with Trametinib and Adagrasib compared with Adagrasib singly or formula (I) + Trametinib: inhibited tumor proliferation in a statistically significant manner
[5]; once a day
  enhancement in antitumor effect (tumor volume) by combined use with Trametinib: remarkable enhancement in antitumor effect
[5]; formula (I) 12.5 or 25 mg/kg p.o. + Trametinib 0.3 mg/kg p.o., once a day, FIGS. 1 and 2
  tumor proliferation, combined use with Trametinib compared with formula (I) or Trametinib administered singly: inhibited tumor proliferation in a statistically significant manner
[5]; formula (I) 12.5 or 25 mg/kg p.o. + Trametinib 0.3 mg/kg vs ICG001 100 mg/kg i.p. + Trametinib 0.3 mg/kg, FIG. 4
  tumor proliferation, combined administration with Trametinib compared with combined administration of ICG001 and Trametinib: inhibited tumor proliferation in a statistically significant manner

## O=C1[C@H](Cc2ccc(O)cc2)N2C(=O)CCN(C(=O)NCc3ccccc3)[C@H]2CN1Cc1cccc2ccccc12 [ICG001]
[6]; ICG001 + Vemurafenib + Trametinib
  antitumor effect, in combination with both Vemurafenib and Trametinib compared to the single administration: antitumor effect is enhanced
[6]; ICG001 + Vemurafenib
  antitumor effect, in combination with Vemurafenib compared to the single administration: antitumor effect is enhanced
[7]
  antitumor effect, in combination with Trametinib compared to the single administration: antitumor effect is enhanced
[5]; once a day
  enhancement in antitumor effect (tumor volume) by combined use with Trametinib: remarkable enhancement in antitumor effect was not observed

Reference: patent US20260232679A1, “PHARMACEUTICAL COMPOSITION FOR TREATING TUMORS” (Eisai R&D Management Co., Ltd., priority 2023, published 2026)
